{"source": "paper PMC6954543", "about": "“A window-of-opportunity trial of the CXCR1/2 inhibitor reparixin in operable HER-2-negative breast cancer” (Breast Cancer Research : BCR, 2020)", "key": {"P62": {"system": "P62", "experiment": "p62 expression on tumor cells by IHC", "assay_type": "in vivo, human", "conditions": "IHC score 0 to 4", "procedure": "(§1) All IHC analyses and scoring for extent (0 to 4) and intensity (0 to 3) were performed at the Houston Memorial Hermann Pathology laboratory as previously described. After antigen retrieval (Tris-Cl, pH 9.0), paraffin-embedded sections of sample tumors were incubated for 1 h at room temperature with the following antibodies: anti-human CXCR1 (rabbit polyclonal to CXCR1 - C-terminal, ab137351; Abcam, Cambridge, MA), anti-human CD31 (clone JC70A, #IS610; Dako, Glostrup, Denmark), anti-human p62 (clone SQSTM1/p62, # 5114; Cell Signaling), anti-human AKT (rabbit polyclonal to pan-AKT, # ab8805; Abcam), anti-human FAK (clone pY861, #44-626G; Invitrogen, Qiagen, Carlsbad, CA), anti-human phospho-AKT (clone Ser473 (D9E), #4060; Cell Signaling), anti-human phospho-FAK (clone Y397, #ab4803; Abcam), and anti-human LC3B (clone D11, #3868; Cell Signaling). For the evaluation of extent, the following semi-quantitative score method (0 to 4) was used: 0, no positive cells; 1, 1–25%; 2, 26–50%; 3, 51–75%; and 4, 76–100%."}, "CD31": {"system": "CD31", "experiment": "CD31 staining of core biopsies by IHC", "assay_type": "in vivo, human", "conditions": "day 21 (16/20 at baseline)", "procedure": "as §1"}, "[1]": {"system": "ALDH+ and CD24−/CD44+ CSC", "experiment": "CSC evaluation in core biopsy samples by flow cytometry", "assay_type": "in vivo, human", "procedure": "Patients underwent core biopsies at baseline (day − 14 to 0) and at the completion of therapy (day 21). Three to five ≥ 18-gage needle biopsies were taken to measure the changes in CSC populations and pathway markers. If not performed at the completion of treatment, a core biopsy was taken on the day of surgery by the same technique. A sample of the surgically resected tumor tissue was also taken.\nCSC populations (CD24^−/CD44^+ and ALDH^+) were measured by flow-cytometry of single-cell suspensions obtained from tumor biopsies (Additional file 1: Supplemental Materials) by using anti-human CD44-APC (clone G44-26) and CD24-FITC (clone ML5, RUO) antibodies (BD Biosciences, Franklin Lakes, NJ), and ALDEFLUOR assay (StemCell Technologies, Inc., Vancouver, BC, Canada), respectively, as previously published.\nIn the absence of reference data from the literature, signal of activity was defined as a ≥ 20% reduction in CSC (defined by either the ALDH^+− or CD24^−/CD44^+ phenotype) from baseline values as measured by flow cytometry, accompanied by a consistent reduction of the same cell population by IHC. The 20% cutoff was chosen considering only 1 21-day course of reparixin could be administered before surgery. Given the exploratory nature of the study to be conducted in a curable patient population, a sample of 40 patients divided into 2 subgroups of 20 patient each (i.e., ER+ and/or PgR+ and TNBC) was deemed adequate based upon simulations using the Wilson score method to obtain a lower limit for the probability of success. For each subgroup with this sample size, the study will have 80% power to detect a signal of activity (as defined above) observed in ≥ 70% patients as statistically significant at the 0.05 significance level.\nTo obtain single cell suspension, samples were weighed and observed for appearance, then placed in digestion media and kept at room temperature. The specimens were then rocked for 1 hour at 185 rpm (1.5 hours for surgical specimens), then filtered through 70 µm filter. HBSS+ was added to rinse any residual cells from filter, and the specimens were centrifuged 350xg for 5 minutes at 4 °C. For RBC lysis, cells were resuspended in sterile cell culture grade water, and after 20 seconds, 10XPBS was added. The specimens were then centrifuged at 350xg for 5 minutes at 4 °C. Supernatant was removed. The rest of the specimen was then filtered with 40 µm sterile cell strainer. Cell concentration was measured using Invitrogen Countess."}, "[2]": {"experiment": "Pharmacokinetics of single-agent oral reparixin in plasma", "assay_type": "in vivo, human", "procedure": "Samples for pharmacokinetics (PK) were collected at selected sites in consenting patients. Venous blood samples (6 mL) were collected from a forearm vein at times 0.0, 0.25, 0.5, 1.0, 2.0, 4.0, 6.0, and 8.0 h following reparixin administration on days 1 and 21. The blood samples were immediately centrifuged at 4 °C, 1200 relative centrifugal force (RCF), for 10 min, and the plasma collected. Each plasma sample was divided into 2 aliquots and stored in 2 pre-labeled polypropylene screw-capped tubes (about 2 mL each) at − 20 °C until analysis. The analysis was performed at the Dompé Analytical Development Laboratories in L’Aquila, Italy."}, "[3]": {"experiment": "Safety of oral reparixin in window-of-opportunity trial (TEAEs, ANC)", "assay_type": "in vivo, human", "from_the_text": "In this single-arm, monotherapy trial (NCT01861054), female patients aged ≥ 18 years with HER-2-negative operable breast cancer (with a clinical diameter of ≥ 2 cm) that were not candidates for neoadjuvant therapy were recruited. The protocol was amended later to allow inclusion of patients with HER-2-negative operable breast cancer with a clinical diameter of > 1 cm, not eligible for neoadjuvant treatment. Patients needed to have previously untreated, histologically proven (per local investigator assessment) ER+ and/or PgR+ or ER−/PgR− breast cancer (i.e., triple-negative BC (TNBC)) with adequate organ function.\nPatients were requested to take reparixin, an investigational orally available CXCR1/2 inhibitor, as two immediate-release 500-mg oral tablets every 6 to 8 h (every 8 h on the days of PK sampling) with food (a light meal or snack), for 21 consecutive days before surgery.\nDescriptive statistics were used to summarize safety variables (i.e., adverse events, physical examination, vital signs, ECG, laboratory data, concomitant medications)."}, "CXCR1": {"system": "CXCR1", "experiment": "CXCR1 expression on tumor cells by IHC", "assay_type": "in vivo, human", "conditions": "largest proportion at levels 4 and 3 at baseline; level 3 and 2 or lower at day 21", "procedure": "as §1"}, "[4]": {"system": "human BC cell lines and xenografts", "parameters": "method as in PMID 20051626", "conditions": "single agent and in combination with chemotherapy; cited from earlier work"}, "[5]": {"conditions": "female, human, in vivo, po, 1000 mg"}}, "data": [{"compound": "CC(C)Cc1ccc([C@@H](C)C(=O)NS(C)(=O)=O)cc1", "note": "[reparixin]", "values": [{"measurement": "P62 extent (percentage of positive cells), change baseline to day 21", "setting": "P62", "result": "decreased from level 4 to level 3 or lower in the majority of patients"}, {"measurement": "patients with value of 0 for CD31, extent and intensity", "setting": "CD31", "result": "11/15"}, {"measurement": "patients with decrease in ALDH+ cells not accompanied by reduction of CD24−/CD44+ cells", "setting": "[1]", "result": 2, "unit": "patients"}, {"measurement": "patients with decrease in CD24−/CD44+ CSC not paralleled by decrease in ALDH+ CSC", "setting": "[1]", "result": 6, "unit": "patients"}, {"measurement": "patients without ALDH+ CSC at baseline in whom ALDH+ CSCs were detected at day 21", "setting": "[1]; core biopsy", "result": "5/9"}, {"measurement": "patients without CD24−/CD44+ CSC at baseline in whom CD24−/CD44+ CSCs were detected at day 21", "setting": "[1]; core biopsy", "result": "6/6"}, {"measurement": "Tmax", "setting": "[2]; [5]", "result": 1, "unit": "h"}, {"measurement": "half-life", "setting": "[2]; [5]", "result": "~2", "unit": "h"}, {"measurement": "bioavailability following oral administration", "setting": "[2]; human, in vivo, po", "result": "high bioavailability"}, {"measurement": "systemic exposure (Cmax and AUClast), change from day 1 to day 21", "setting": "[2]; human, in vivo, po, 1000 mg", "result": "did not change"}, {"measurement": "accumulation upon multiple dosing", "setting": "[2]; oral 1000 mg t.i.d. for 21 days", "result": "no accumulation"}, {"measurement": "patients who experienced ≥ 1 TEAE related to the study drug", "setting": "[3]; 1000 mg t.i.d. oral, 21 days", "result": "Ten of 20"}, {"measurement": "TEAEs leading to discontinuation", "setting": "[3]; 1000 mg t.i.d. oral, 21 days, 20 patients", "result": "no treatment-emergent adverse events (TEAEs) leading to discontinuation"}, {"measurement": "delay of surgery due to study treatment", "setting": "[3]; 20 patients", "result": "No patients had to delay surgery"}, {"measurement": "serious adverse reactions", "setting": "[3]; 20 patients", "result": "no serious adverse reactions"}, {"measurement": "neutropenia / decrease in absolute neutrophil count (ANC)", "setting": "[3]; ANC at weekly intervals, 10/20 patients", "result": "neither neutropenia of any grade nor any sustained decrease in ANC"}, {"measurement": "grade of TEAEs related to the study drug", "setting": "[3]; all related TEAEs", "result": "≤ 2", "unit": "grade"}, {"measurement": "TEAE grade 1 fatigue", "setting": "[3]; of 20 patients", "result": 8, "unit": "patients"}, {"measurement": "TEAE nausea", "setting": "[3]; of 20 patients", "result": 5, "unit": "patients"}, {"measurement": "TEAE related to study drug: fatigue", "setting": "[3]; of 20 patients", "result": 4, "unit": "patients"}, {"measurement": "TEAE related to study drug: flatulence", "setting": "[3]; of 20 patients", "result": 2, "unit": "patients"}, {"measurement": "TEAE related to study drug: headache", "setting": "[3]; of 20 patients", "result": 2, "unit": "patients"}, {"measurement": "TEAE related to study drug: nausea", "setting": "[3]; of 20 patients", "result": 2, "unit": "patients"}, {"measurement": "serious TEAE", "setting": "[3]; of 20 patients, unrelated to the study drug", "result": 1, "unit": "patient"}, {"measurement": "CXCR1 positivity, extent and intensity, change at day 21", "setting": "CXCR1", "result": "decrease"}, {"measurement": "metastatic spread of human BC cells and CSC (ALDH+ and CD24−/CD44+) content", "setting": "[4]", "result": "reduced"}]}]}
